Where “and” joins values, the source holds several entries; their conditions need not be identical. Identical values can stand only once. Like-named read-outs stand apart in the source and are kept apart here.
How the values were obtained:
Enterobacterales = test: MIC, broth microdilution, CDC/FDA Antibiotic Resistance Isolate Bank (Example 7, Tables 8, 11, 12); assay type: cell-based
A. baumannii = test: MIC, broth microdilution, CDC/FDA Antibiotic Resistance Isolate Bank (Example 7, Tables 9, 13, 14); assay type: cell-based, Acinetobacter baumannii
[1] = carbapenemase-producing Enterobacterales, Metallo-β-lactamase (N = 47)
[2] = carbapenemase-producing Enterobacterales, Serine carbapenemase (N=61)

colistin
MIC (Enterobacterales; Klebsiella pneumoniae, KUB No. 5610, AR Bank # 113): 0.5 µg/mL | MIC (Enterobacterales; Klebsiella pneumoniae, KUB No. 5612, AR Bank # 115): 1 µg/mL | MIC (Enterobacterales; Klebsiella pneumoniae, KUB No. 5614, AR Bank # 117): 1 µg/mL | MIC (Enterobacterales; Klebsiella pneumoniae, KUB No. 5617, AR Bank # 120): 1 µg/mL | MIC (Enterobacterales; Klebsiella pneumoniae, KUB No. 5622, AR Bank # 125): 16 µg/mL | MIC (Enterobacterales; Klebsiella pneumoniae, KUB No. 5626, AR Bank # 129): 0.5 µg/mL | MIC (Enterobacterales; Klebsiella pneumoniae, KUB No. 5757, AR Bank # 361): 0.5 µg/mL | MIC (Enterobacterales; Klebsiella pneumoniae, KUB No. 5759, AR Bank # 363): 0.5 µg/mL | MIC (Enterobacterales; Klebsiella pneumoniae, KUB No. 5760, AR Bank # 364): 64 µg/mL | MIC (Enterobacterales; Klebsiella pneumoniae, KUB No. 5772, AR Bank # 376): 0.5 µg/mL | MIC (Enterobacterales; Proteus mirabilis, KUB No. 5775, AR Bank # 379): 64 µg/mL | MIC (Enterobacterales; Raoultella ornithinolvtica, KUB No. 5631, AR Bank # 134): 8 µg/mL | MIC (Enterobacterales; Salmonella Senftenberg, KUB No. 5624, AR Bank # 127): 0.5 µg/mL | MIC50 (Enterobacterales; [1]): 0.5 µg/mL | MIC90 (Enterobacterales; [1]): 8 µg/mL | MIC50 (Enterobacterales; [2]): 0.5 µg/mL | MIC90 (Enterobacterales; [2]): >64 µg/mL | MIC90 (Enterobacterales; metallo-β-lactamase-producing strains of Enterobacterales): 8 µg/mL | MIC (A. baumannii): 0.5 µg/mL and 1 µg/mL | MIC50 (A. baumannii; 55 isolates of A. baumannii): 1 µg/mL | MIC80 (A. baumannii; 55 isolates of A. baumannii): 2 µg/mL | MIC90 (A. baumannii; 55 isolates of A. baumannii): 2 µg/mL | MIC (A. baumannii; A. baumannii KUB No. 5567, AR Bank #70, OXA-58, OXA-100): 0.25 µg/mL | MIC (A. baumannii; A. baumannii KUB No. 5575, AR Bank #78, OXA-71): 1 µg/mL | MIC (A. baumannii; A. baumannii KUB No. 5580, AR Bank #83, OXA-23, OXA-69, NDM-1): 1 µg/mL | MIC (A. baumannii; A. baumannii KUB No. 5585, AR Bank #88, OXA-64, NDM-1): 1 µg/mL | MIC (A. baumannii; A. baumannii KUB No. 5598, AR Bank #101, OXA-24, OXA-65): 1 µg/mL | MIC (A. baumannii; A. baumannii KUB No. 5599, AR Bank #102, OXA-66): 1 µg/mL | MIC (A. baumannii; A. baumannii KUB No. 5706, AR Bank #273, OXA-23, OXA-66): 1 µg/mL | MIC (A. baumannii; A. baumannii KUB No. 5707, AR Bank #274, OXA-66, OXA-72): 0.5 µg/mL | MIC (A. baumannii; A. baumannii KUB No. 5708, AR Bank #275, OXA-23, OXA-66): 1 µg/mL | MIC (A. baumannii; A. baumannii KUB No. 5709, AR Bank #276, no carbapenemase genes (-)): 2 µg/mL | MIC (A. baumannii; A. baumannii KUB No. 5710, AR Bank #277, OXA-24, OXA-65): 0.5 µg/mL | MIC (A. baumannii; A. baumannii KUB No. 5711, AR Bank #278, OXA-23, OXA-66): 1 µg/mL | MIC (A. baumannii; A. baumannii KUB No. 5712, AR Bank #279, OXA-23, OXA-66): 1 µg/mL | MIC (A. baumannii; A. baumannii KUB No. 5713, AR Bank #280, OXA-66): 1 µg/mL | MIC (A. baumannii; A. baumannii KUB No. 5714, AR Bank #281, OXA-82): 1 µg/mL | MIC (A. baumannii; A. baumannii KUB No. 5715, AR Bank #282, OXA-23, OXA-66): 1 µg/mL | MIC (A. baumannii; A. baumannii KUB No. 5716, AR Bank #283, OXA-23, OXA-66): 1 µg/mL | MIC (A. baumannii; A. baumannii KUB No. 5717, AR Bank #284, OXA-24, OXA-65): 1 µg/mL | MIC (A. baumannii; A. baumannii KUB No. 5718, AR Bank #285, OXA-24, OXA-65): 0.5 µg/mL | MIC (A. baumannii; KUB No. 5719, AR Bank #286): 1 µg/mL | MIC (A. baumannii; KUB No. 5720, AR Bank #287): 1 µg/mL | MIC (A. baumannii; KUB No. 5721, AR Bank #288): >64 µg/mL | MIC (A. baumannii; KUB No. 5722, AR Bank #259): 2 µg/mL | MIC (A. baumannii; KUB No. 5723, AR Bank #290): 1 µg/mL | MIC (A. baumannii; KUB No. 5724, AR Bank #291): 1 µg/mL | MIC (A. baumannii; KUB No. 5725, AR Bank #292): 1 µg/mL | MIC (A. baumannii; KUB No. 5726, AR Bank #293): 1 µg/mL | MIC (A. baumannii; KUB No. 5727, AR Bank #294): 1 µg/mL | MIC (A. baumannii; KUB No. 5728, AR Bank #295): 1 µg/mL | MIC (A. baumannii; KUB No. 5729, AR Bank #296): 2 µg/mL | MIC (A. baumannii; KUB No. 5730, AR Bank #297): 2 µg/mL | MIC (A. baumannii; KUB No. 5731, AR Bank #298): 0.5 µg/mL | MIC (A. baumannii; KUB No. 5732, AR Bank #299): 2 µg/mL | MIC (A. baumannii; KUB No. 5733, AR Bank #300): 1 µg/mL | MIC (A. baumannii; KUB No. 5734, AR Bank #301): 1 µg/mL | MIC (A. baumannii; KUB No. 5735, AR Bank #302): 1 µg/mL | MIC (A. baumannii; KUB No. 5736, AR Bank #303): >64 µg/mL | MIC (A. baumannii; KUB No. 5737, AR Bank #304): 4 µg/mL | MIC (A. baumannii; KUB No. 5738, AR Bank #305): 2 µg/mL | MIC (A. baumannii; KUB No. 5739, AR Bank #306): 1 µg/mL | MIC (A. baumannii; KUB No. 5740, AR Bank #307): 2 µg/mL | MIC (A. baumannii; KUB No. 5741, AR Bank #308): 1 µg/mL | MIC (A. baumannii; KUB No. 5742, AR Bank #309): 2 µg/mL | MIC (A. baumannii; KUB No. 5743, AR Bank #310): 1 µg/mL | MIC (A. baumannii; KUB No. 5744, AR Bank #311): 1 µg/mL | MIC (A. baumannii; KUB No. 5745, AR Bank #312): 1 µg/mL | MIC (A. baumannii; KUB No. 5746, AR Bank #313): 2 µg/mL
